In brackets after ≈: the same amount, converted by molar mass.

For 28 compounds, selectivity ratio and MIC results are on record in ChEMBL document CHEMBL4814047, “Design, synthesis and biological activity of N-(amino)piperazine-containing benzothiazinones against Mycobacterium tuberculosis” (Eur J Med Chem, 2021).

Data set [1] is described as follows: Selectivity index, ratio of CC50 for African green monkey Vero cells to MIC for multidrug resistance Mycobacterium tuberculosis 16995 clinical isolate. The format is toxicity. Conditions: read-out: Selectivity Index.
The subject of data set [2] is Mycobacterium tuberculosis. Description: Antimycobacterial activity against multidrug resistance Mycobacterium tuberculosis 16995 clinical isolate incubated for 7 days by microplate alamar blue assay. Format: functional. As to conditions: Mycobacterium tuberculosis, 16995, 168 h; time 7 day. In general terms: The colour change of resazurin is a common sign of viable cells or microbes.

Data set [3] concerns Mycobacterium tuberculosis. The data set is described as follows: Antimycobacterial activity against multidrug resistance Mycobacterium tuberculosis 16833 clinical isolate incubated for 7 days by microplate alamar blue assay. The format is functional. Conditions: Mycobacterium tuberculosis, 16833, 168 h; time 7 day.

As a reminder, the MIC is the lowest concentration that inhibits growth of the organism. Regarding `O=c1nc(N2CCN(/N=C/c3ccc(OC(F)(F)F)cc3)CC2)sc2c([N+](=O)[O-])cc(C(F)(F)F)cc12`, the selectivity ratio in data set [1] was greater than 4000. Further, the MIC in data set [2] and in data set [3] was less than 0.016 µg/mL each time.
Take `CC(NN1CCN(c2nc(=O)c3cc(C(F)(F)F)cc([N+](=O)[O-])c3s2)CC1)c1ccc(OC(F)(F)F)cc1` (configuration not stated): the selectivity ratio in data set [1] is greater than 3620. The MIC in data set [2] was 0.0177 µg/mL (≈ 0.0314 µM); in data set [3] it was 0.0196 µg/mL (≈ 0.0348 µM).
As for `O=c1nc(N2CCN(Nc3ccc(C(F)(F)F)cc3)CC2)sc2c([N+](=O)[O-])cc(C(F)(F)F)cc12`, in data set [1], the selectivity ratio is greater than 4000. Moreover, the minimum inhibitory concentration (MIC) in data set [2] and in data set [3] was less than 0.016 µg/mL throughout.
Turning to `O=c1nc(N2CCN(NCc3ccc(Br)cc3)CC2)sc2c([N+](=O)[O-])cc(C(F)(F)F)cc12`, in data set [1], the selectivity ratio was greater than 4000. The MIC in data set [2] and in data set [3] was less than 0.016 µg/mL each time.
As to `O=c1nc(N2CCN(NCc3ccc(F)cc3)CC2)sc2c([N+](=O)[O-])cc(C(F)(F)F)cc12`, the selectivity ratio in data set [1] is greater than 4000. The MIC in data set [2] and in data set [3] was less than 0.016 µg/mL in each case.
As to `COc1ccc(CNN2CCN(c3nc(=O)c4cc(C(F)(F)F)cc([N+](=O)[O-])c4s3)CC2)cc1`, the selectivity ratio in data set [1] was greater than 2360. The values for the MIC in data set [2] and in data set [3] were 0.0271 µg/mL (≈ 0.0547 µM) and less than 0.016 µg/mL, respectively.
On to `CC(C)CN(CC(C)C)N1CCN(c2nc(=O)c3cc(C(F)(F)F)cc([N+](=O)[O-])c3s2)CC1`, for which the selectivity ratio in data set [1] was greater than 4000. The minimum inhibitory concentration (MIC) in data set [2] and in data set [3] was less than 0.016 µg/mL each time.
As for `O=c1nc(N2CCN(NCc3ccc(OC(F)(F)F)cc3)CC2)sc2c([N+](=O)[O-])cc(C(F)(F)F)cc12`, in data set [1], the selectivity ratio was greater than 4000. Moreover, the MIC in data set [2] and in data set [3] was less than 0.016 µg/mL throughout.
For the compound `O=c1nc(N2CCN(Nc3ccc(OC(F)(F)F)cc3)CC2)sc2c([N+](=O)[O-])cc(C(F)(F)F)cc12`, the selectivity ratio in data set [1] was greater than 4000. The MIC in data set [2] and in data set [3] was less than 0.016 µg/mL each time.
As to `O=c1nc(N2CCN(NCc3ccc(Cl)cc3)CC2)sc2c([N+](=O)[O-])cc(C(F)(F)F)cc12`, the selectivity ratio in data set [1] was greater than 4000. The MIC in data set [2] and in data set [3] was less than 0.016 µg/mL each time.
Consider `Cc1cccc(F)c1CNN1CCN(c2nc(=O)c3cc(C(F)(F)F)cc([N+](=O)[O-])c3s2)CC1`, for which, in data set [1], the selectivity ratio was greater than 3930. The values for the MIC in data set [2] and in data set [3] were 0.0163 µg/mL (≈ 0.0328 µM) and 0.0152 µg/mL (≈ 0.0306 µM), respectively.
Consider `CN(c1ccc(OC(F)(F)F)cc1)N1CCN(c2nc(=O)c3cc(C(F)(F)F)cc([N+](=O)[O-])c3s2)CC1`, for which the selectivity ratio in data set [1] was greater than 4000. The MIC in data set [2] and in data set [3] was less than 0.016 µg/mL in each case.
As to `O=c1nc(N2CCN(NC3CCCCC3)CC2)sc2c([N+](=O)[O-])cc(C(F)(F)F)cc12`, the selectivity ratio in data set [1] is greater than 4000. The MIC in data set [2] and in data set [3] was less than 0.016 µg/mL in each case.
On to `CON=C1CCC(N(C)N2CCN(c3nc(=O)c4cc(C(F)(F)F)cc([N+](=O)[O-])c4s3)CC2)CC1` (configuration not stated), for which, in data set [1], the selectivity ratio was greater than 4000. For the same compound, the minimum inhibitory concentration (MIC) in data set [2] and in data set [3] was less than 0.016 µg/mL in each case.
`Cc1ccc(CNN2CCN(c3nc(=O)c4cc(C(F)(F)F)cc([N+](=O)[O-])c4s3)CC2)cc1`: the selectivity ratio in data set [1] was greater than 4000. Further, the MIC in data set [2] and in data set [3] was less than 0.016 µg/mL throughout.
In the case of `CN(CC1CCCCC1)N1CCN(c2nc(=O)c3cc(C(F)(F)F)cc([N+](=O)[O-])c3s2)CC1`, the selectivity ratio in data set [1] is greater than 4000. Also, the minimal inhibitory concentration (MIC) in data set [2] and in data set [3] was less than 0.016 µg/mL each time.
Consider `O=c1nc(N2CCN(NCC3CCCC3)CC2)sc2c([N+](=O)[O-])cc(C(F)(F)F)cc12`, for which, in data set [1], the selectivity ratio was greater than 4000. Moreover, the MIC in data set [2] and in data set [3] was less than 0.016 µg/mL each time.
Take `O=c1nc(N2CCN(NCc3cccc(C(F)(F)F)c3)CC2)sc2c([N+](=O)[O-])cc(C(F)(F)F)cc12`: the selectivity ratio in data set [1] was greater than 4000. Besides, the minimum inhibitory concentration (MIC) in data set [2] and in data set [3] was less than 0.016 µg/mL each time.
For `CC(c1ccc(OC(F)(F)F)cc1)N(C)N1CCN(c2nc(=O)c3cc(C(F)(F)F)cc([N+](=O)[O-])c3s2)CC1` (configuration not stated), in data set [1], the selectivity ratio was greater than 4000. Moreover, the MIC in data set [2] and in data set [3] was less than 0.016 µg/mL throughout.
On to `O=c1nc(N2CCN(NCC3CCCCC3)CC2)sc2c([N+](=O)[O-])cc(C(F)(F)F)cc12`, for which the selectivity ratio in data set [1] was greater than 1830. Besides, the minimum inhibitory concentration (MIC) in data set [2] and in data set [3] was less than 0.016 µg/mL throughout.
As to `C/C(=N\N1CCN(c2nc(=O)c3cc(C(F)(F)F)cc([N+](=O)[O-])c3s2)CC1)c1ccc(OC(F)(F)F)cc1`, the selectivity ratio in data set [1] is greater than 4000. The MIC in data set [2] and in data set [3] was less than 0.016 µg/mL each time.
Turning to `O=c1nc(N2CCN(NCc3ccc(C(F)(F)F)cc3)CC2)sc2c([N+](=O)[O-])cc(C(F)(F)F)cc12`, the selectivity ratio in data set [1] was greater than 4000. Besides, the minimal inhibitory concentration (MIC) in data set [2] and in data set [3] was less than 0.016 µg/mL throughout.
Consider `O=c1nc(N2CCN(NCc3cc(F)cc(F)c3)CC2)sc2c([N+](=O)[O-])cc(C(F)(F)F)cc12`, for which, in data set [1], the selectivity ratio is greater than 4000. The MIC in data set [2] and in data set [3] was less than 0.016 µg/mL in each case.
On to `O=c1nc(N2CCN(NCCC3CCCCC3)CC2)sc2c([N+](=O)[O-])cc(C(F)(F)F)cc12`, for which the selectivity ratio in data set [1] was greater than 2180. For the same compound, the MIC came out at 0.0294 µg/mL (≈ 0.0606 µM) in data set [2] and 0.0357 µg/mL (≈ 0.0735 µM) in data set [3].
For `CC(C)(C)c1ccc(CNN2CCN(c3nc(=O)c4cc(C(F)(F)F)cc([N+](=O)[O-])c4s3)CC2)cc1`, in that order: greater than 4000, less than 0.016 µg/mL and less than 0.016 µg/mL.
In the case of `NNC(=O)c1ccncc1` [ISONIAZID], the minimal inhibitory concentration (MIC) in data set [2] and in data set [3] was greater than 10 µg/mL each time.
On to `O=c1nc(N2CCN(CC3CCCCC3)CC2)sc2c([N+](=O)[O-])cc(C(F)(F)F)cc12` [MACOZINONE], for which, in data set [1], the selectivity ratio is greater than 4000. The minimal inhibitory concentration (MIC) in data set [2] and in data set [3] was less than 0.016 µg/mL in each case.
Take `CO[C@H]1/C=C/O[C@@]2(C)Oc3c(C)c(O)c4c(O)c(c(/C=N/N5CCN(C)CC5)c(O)c4c3C2=O)NC(=O)/C(C)=C\C=C\[C@H](C)[C@H](O)[C@@H](C)[C@@H](O)[C@@H](C)[C@H](OC(C)=O)[C@@H]1C` [RIFAMPIN]: the MIC in data set [2] and in data set [3] was greater than 10 µg/mL in each case.
